From patent publication US20140213557A1, “Active Compound Combinations” (Bayer CropScience AG, priority 2005, published 2014) come the findings set out here.

In this assay the test system is Phakopsora pachyrhizi. The assay is described as follows: Phakopsora test (soya bean). In kind it is in vivo. The settings on record: sprayed 1 day before inoculation, evaluation 11 days after inoculation. On the procedure:
The suitable active compound preparations used are commercial formulations which, if required, are diluted to the desired concentration prior to application.
Soya bean plants (cv. Miyagishirome) are cultivated in a plastic vessel having a diameter of 7.5 cm for 14 days, until they have reached the ⅔-leaf stage. The active compound preparations were, at the concentrations stated below, sprayed onto the test plants (6 ml for in each case 3 test vessels, the test solution contains 0.02% of Neoesterin as tackifier).
1 day after the application of the active compound preparation, the plants were sprayed with a urediniospore suspension (1×10^5 urediniospores/ml) of the rust pathogen Phakopsora pachyrhizi. The plants are then placed in a greenhouse at about 25° C. during the day and about 18° C. at night and a relative atmospheric humidity of 91.9%.
Evaluation is carried out 11 days after the inoculation by comparison of the infected areas of untreated and treated plants. 0% means an efficacy which corresponds to that of the control, whereas an efficacy of 100% means that no infection is observed.

Molecules are shown by their SMILES. Several values for one entry are separate records, joined by “and”; a condition that tells them apart may be missing. Equal entries are not always repeated.

As for `O=C(O)CNCP(=O)(O)O` [(1-1) glyphosate, glyphosate], the “Efficacy in % found” value reads like this: (application rate 0.5 ppm) 0%; (application rate 5 ppm) 0%.

As for `CC(C)(C)C(O)(CCc1ccc(Cl)cc1)Cn1cncn1` (centres unmarked) [(3-17) tebuconazole, tebuconazole], the “Efficacy in % found” value (application rate 0.5 ppm) is 60% and 50%.

For the compound `CP(=O)(O)CCC(N)C(=O)O` (centres unmarked) [(1-2) glufosinate, glufosinate], the “Efficacy in % found” value came to 0% (application rate 0.5 ppm) and 0% (application rate 5 ppm).
